Patent US7713953B2, “2-methylene-(22E)-25-(1-methylene-hexyl)-26,27-cyclo-22-dehydro-19-nor-vitamin D analogs” (Wisconsin Alumni Research Foundation, priority 2008, dated 2010)

Assays:
[1] = system: vitamin D-deficient rats; assay: Bone calcium mobilization (serum calcium); format: in vivo, rat; details: for bone calcium mobilization activity (serum calcium): rats on low calcium diet (0.02%), 4 consecutive daily ip doses
Description: (§1) Male, weanling Sprague-Dawley rats were placed on Diet 11 (0.47% Ca) diet+AEK oil for one week followed by Diet 11 (0.02% Ca)+AEK oil for 3 weeks. The rats were then switched to a diet containing 0.47% Ca for one week followed by two weeks on a diet containing 0.02% Ca. Dose administration began during the last week on 0.02% calcium diet. Four consecutive ip doses were given approximately 24 hours apart. Twenty-four hours after the last dose, blood was collected from the severed neck and the concentration of serum calcium determined as a measure of bone calcium mobilization. The first 10 cm of the intestine was also collected for intestinal calcium transport analysis using the everted gut sac method.

[2] = system: HL-60 cells; assay: HL-60 cell differentiation (nitro blue tetrazolium reduction); format: cell-based, human; details: for EC50: FIG. 2
Description: The study drugs were dissolved in ethanol and the concentrations determined using UV spectrophotometry. Serial dilutions were prepared so that a range of drug concentrations could be tested without changing the final concentration of ethanol (≦0.2%) present in the cell cultures.
Human promyelocytic leukemia (HL60) cells were grown in RPMI-1640 medium containing 10% fetal bovine serum. The cells were incubated at 37° C. in the presence of 5% CO2.
HL60 cells were plated at 1.2×10^5 cells/ml. Eighteen hours after plating, cells in duplicate were treated with drug. Four days later, the cells were harvested and a nitro blue tetrazolium reduction assay was performed (Collins et al., 1979; J. Exp. Med. 149:969-974). The percentage of differentiated cells was determined by counting a total of 200 cells and recording the number that contained intracellular black-blue formazan deposits. Verification of differentiation to monocytic cells was determined by measuring phagocytic activity (data not shown).

[3] = system: vitamin D-deficient rats; assay: Intestinal calcium transport (everted gut sac method); format: in vivo, rat
Description: as §1

[4] = molecular target: T1, full-length recombinant rat vitamin D receptor (Rattus norvegicus, UniProt P13053); assay: Vitamin D receptor competitive binding with [3H]-1,25(OH)2D3; details: full-length recombinant rat VDR; FIG. 1; read-out: Ki, competition with [3H]-1,25(OH)2D3 for binding to vitamin D receptor
T1 construct: Full-length recombinant rat receptor was expressed in E. coli BL21 (DE3) Codon Plus RIL cells; histidine tag (C); made in house; host or cells: E. coli BL21 (DE3) Codon Plus RIL
T1 sequence (P13053 1-423): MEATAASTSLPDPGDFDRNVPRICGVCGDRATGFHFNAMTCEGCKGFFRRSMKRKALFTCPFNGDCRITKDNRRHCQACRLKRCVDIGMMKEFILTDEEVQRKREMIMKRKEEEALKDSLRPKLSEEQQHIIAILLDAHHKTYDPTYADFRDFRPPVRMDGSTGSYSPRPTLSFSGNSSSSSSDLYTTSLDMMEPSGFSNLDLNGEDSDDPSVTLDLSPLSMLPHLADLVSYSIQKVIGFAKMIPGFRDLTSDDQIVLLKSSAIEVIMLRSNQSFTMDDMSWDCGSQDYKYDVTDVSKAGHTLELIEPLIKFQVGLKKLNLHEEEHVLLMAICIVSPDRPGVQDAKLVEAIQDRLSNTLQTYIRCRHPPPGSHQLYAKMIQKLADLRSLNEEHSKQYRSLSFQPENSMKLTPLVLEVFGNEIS
Description: Full-length recombinant rat receptor was expressed in E. coli BL21 (DE3) Codon Plus RIL cells and purified to homogeneity using two different column chromatography systems. The first system was a nickel affinity resin that utilizes the C-terminal histidine tag on this protein. The protein that was eluted from this resin was further purified using ion exchange chromatography (S-Sepharose Fast Flow). Aliquots of the purified protein were quick frozen in liquid nitrogen and stored at −80° C. until use. For use in binding assays, the protein was diluted in TEDK50 (50 mM Tris, 1.5 mM EDTA, pH7.4, 5 mM DTT, 150 mM KCl) with 0.1% Chaps detergent. The receptor protein and ligand concentration were optimized such that no more than 20% of the added radiolabeled ligand was bound to the receptor.
Radiolabeled and unlabeled ligands were added to 100 mcl of the diluted protein at a final ethanol concentration of ≦10%, mixed and incubated overnight on ice to reach binding equilibrium. The following day, 100 mcl of hydroxylapatite slurry (50%) was added to each tube and mixed at 10-minute intervals for 30 minutes. The hydroxylapaptite was collected by centrifugation and then washed three times with Tris-EDTA buffer (50 mM Tris, 1.5 mM EDTA, pH 7.4) containing 0.5% Titron X-100. […] Total binding was determined from the tubes containing only radiolabeled ligand.

[5] = system: 24-hydroxylase (24 Ohase) gene promoter in ROS 17/2.8 (bone) cells; assay: In vitro transcription assay (24-hydroxylase promoter luciferase reporter); format: cell-based
Description: Transcription activity was measured in ROS 17/2.8 (bone) cells that were stably transfected with a 24-hydroxylase (24 Ohase) gene promoter upstream of a luciferase reporter gene (Arbour et al., 1998). Cells were given a range of doses. Sixteen hours after dosing the cells were harvested and luciferase activities were measured using a luminometer.
RLU=relative luciferase units.

[6] = times greater than the native hormone

| SMILES | bone calcium mobilization activity (serum calcium) ([1]; FIG. 4A) | EC50 [2] | intestinal calcium transport at 780 pmol/day [3] | bone calcium mobilization at 7020 pmol/day compared with native hormone at 780 pmol/day ([1]; 7020 pmol/day for 4 consecutive days, FIG. 4B) | dose giving the same mobilization of bone calcium as 1,25(OH)2D3 at 32 pmol/day ([1]; 4 consecutive days, FIG. 4A) | dose at which any substantial effect on bone calcium mobilization was seen ([1]; FIG. 4A, first group of animals) | dose at which any substantial effect on bone calcium mobilization was seen ([1]; FIG. 4B, second group of animals) | Ki [4] | EC50 ([5]; 24-hydroxylase gene, FIG. 3, read-out: EC50, transcriptional activity in bone cells) | transcriptional activity in bone cells relative to 1α,25-dihydroxyvitamin D3 [5, 6] | EC50 ([2]; Homo sapiens, HL-60) | HL-60 cell differentiation activity relative to 1α,25-dihydroxyvitamin D3 [2, 6] | intestinal calcium transport activity at 260 pmol/day ([3]; 260 pmol/day for 4 consecutive days, FIG. 5A) | dose at which any significant effect on intestinal calcium transport was seen ([3]; FIG. 5A) | intestinal calcium transport activity ([3]; FIG. 5A, overall) | intestinal calcium transport activity compared with native hormone ([3]; FIG. 5B, second group of animals) |
| --- | --- | --- | --- | --- | --- | --- | --- | --- | --- | --- | --- | --- | --- | --- | --- | --- |
| C=C1/C(=C\C=C2/CCC[C@]3(C)[C@@H]([C@H](C)CCCC(C)(C)O)CC[C@@H]23)C[C@@H](O)C[C@@H]1O [1,25(OH)2D3, 1α,25-dihydroxyvitamin D3, reference compound] | increased serum calcium levels at all dosages | 3 nM | significant increase |  |  |  |  |  |  |  |  |  |  |  |  |  |
| C=C1[C@H](O)CC(=C/C=C2\CCC[C@]3(C)[C@@H]([C@H](C)/C=C/[C@@H](O)C4(C(=C)CCCCC)CC4)CC[C@@H]23)C[C@H]1O [MM-49, 2-methylene-(22E)-25-(1-methylene-hexyl)-26,27-cyclo-22-dehydro-19-nor-1α,24(R)-dihydroxyvitamin D3] | relatively low, or little, activity in mobilizing calcium from bone |  | promotes intestinal calcium transport | did not result in the same mobilization of bone calcium | 260 pmol/day | 780 pmol/day | 35,100 pmol/day | 0.3 nM | 0.08 nM | 5 times | 0.8 nM | ~5 times | did not result in any activity | 780 pmol/day | relatively low, or little, intestinal calcium transport activity | significantly less than 1,25(OH)3D3 |
